{"source": "patent US11186587B2", "about": "“Compound as ACC inhibitor and use thereof” (NANJING SANHOME PHARMACEUTICAL CO., LTD., priority 2017, dated 2021)", "key": {"[1]": {"test": "Evaluation of compound distribution in rat liver", "format": "in vivo", "details": "male SD rats, single oral 3 mg/kg, 0.25 h after administration", "description": "An acclimation period of 2-3 days was given before the experiments. The rats were fasted for 8-12 h before administration, supplied with water 2 h after administration and foods 4 h after administration.\n6 mg of the test compound (based on free base) was weighed and added to 20 mL of ethanol-PEG400-saline (10:30:60). The mixture was vortexed for 2 min, and sonicated for 3 min, and then used to prepare a solution of test sample solution with a concentration of 0.3 mg/mL for oral administration. 100 μL of the test sample solution was volumed to 10 ng/mL with methanol, and a control sample of the same concentration was prepared. The concentrations of the test sample and control sample were detected by HPLC, and the accuracy was calculated.\nSD rats were given a single oral administration of 3 mg/kg of test compound at a dose of 10 mL/kg. The rats were bled in femoral artery and ruptured in neck 0.25 h after administration. The liver and blood samples (anticoagulation with heparin sodium) were collected immediately, and placed on ice.\nThe homogenate was centrifuged (centrifugation conditions: 8000 rpm/min, 5 min, 4° C.). The supernatant was transferred and subjected to cryopreservation. The supernatant was thawed and centrifuged before injection, and the supernatant was collected and subjected to LC-MS/MS for analyzing the content of the compound in the supernatant sample.\nThe collected whole blood sample was placed on ice and centrifuged within 30 min (centrifugation conditions: 8000 rpm/min, 5 min, 4° C.). 100 μL of the upper layer of plasma was transferred, and precipitated with 300 μL of methanol. The mixture was shaken and centrifuged, and diluted with mobile phase. The supernatant was collected and subjected to LC-MS/MS for analyzing the content of the compound in the supernatant sample."}, "[2]": {"molecular_target": "ACC1 (Homo sapiens (Human), UniProt Q13085)", "test": "ACC1 enzyme activity assay (ADP-Glo)", "format": "biochemical", "details": "ACC1 enzyme 2 nM working solution, room temperature", "description": "(§1) Compound preparation: the compounds of the present disclosure prepared in the above examples and the control compound were respectively formulated into 10 mM with DMSO for use.\n(§2) Preparation of 1× reaction buffer (pH=7.4): HEPES stock solutions (1 M), MgCl2 (1 M), BRIJ-35 (10%), potassium citrate buffer (1 M), BSA (10 mg/mL) and DTT (500 mM) were formulated to enzyme reaction buffer containing HEPES (50 mM), MgCl2 (2 mM), BRIJ-35 (0.01%), potassium citrate buffer (2 mM), BSA (50 Gg/mL) and DTT (2 mM).\n4.5 μL of 2.2×ACC1 enzyme (2 nM) working solution was added to a 384-well plate; and then 0.5 μL of different concentrations of compound were added. The mixture was incubated at room temperature for 15 min.\n(§3) Negative control group: menstruum containing 5% DMSO; positive control group: menstruum containing 100 nM ND-630. The average values of each concentration and the positive and negative controls were calculated, and the standard deviation was calculated. […] The inhibition rate data was fitted by nonlinear regression equation to calculate IC50 of each compound. The nonlinear regression equation was Y=lowest value+(highest value−lowest value)/(1+10^((Log IC50−X)×HillSlope)), among which X is logarithm of the compound concentration and Y is inhibition percent (%)."}, "[3]": {"system": "Col1A1 gene expression in TGF-β1-induced LX-2 cells", "test": "Inhibition of human hepatic stellate cells LX-2 activation in vitro (Col1A1 gene expression, real-time PCR)", "format": "cell-based", "details": "TGFβ1 10 ng/mL, 24 h drug treatment, compound concentration of the tabulated value not stated (30, 10, 3 μM prepared)", "description": "The compounds of the present disclosure prepared in the above examples and the control compound were respectively formulated into 60 mM with DMSO for use.\nDMSO stock solution of the compounds of the examples of the present disclosure and the control compound were sequentially diluted with culture medium to 30 μM, 10 μM, and 3 μM. TGF-β1 was dissolved to […] with 10 mM citric acid buffer in the kit (PeproTech) according to the instructions, ready for use.\nLX-2 cells were inoculated into a 6-well culture plate at a density of 2×10^5 cells/mL after cell passage. Each well contained 2 mL DMEM with 10% FBS. The cells were cultured at 37° C. in a 5% CO2 incubator, which was recorded as Day 1. After 24 h (Day 2), the cell confluence reached 70-80%, the old culture medium was discarded, and the serum-free DMEM was used to treat the cells as low serum starvation. The old culture medium was discarded at Day 3, and the culture medium or the culture medium containing different concentrations of the drug was added for continuing culture. There were control group (serum-free DMEM culture medium), TGFβ1 group, TGFβ1+ compound group. The TGFβ1 working concentration was 10 ng/mL. 24 h after the drug treatment (Day 4), the cell medium was discarded and the cells were washed once with precooled 1×PBS and then subjected to total RNA extraction.\n2.3.1 Sample pretreatment: 1 mL of TransZOL Up reagent was added to each well of the 6-well plate, and the well plate was placed horizontally for a while to let the lysis buffer evenly spread on the cell surface and lyse the cells. The cells were blown with a pipette to make the cells completely detached. The lysate was transferred to a 2 mL RNase free centrifuge tube and repeatedly blown and sucked until no significant pieces in the lysate.\nThe extracted RNA was diluted to a concentration of 0.1 μg-0.5 μg (Total RNA ≤1 μg) based on the same mass. The total RNA in the reverse transcription system of each sample in the experiment was about 500 ng.\nTwo replicates were set for each sample, and the relative expression of the target gene was calculated by the program in the PCR machine.\nThe threshold of the Real Time PCR result was automatically set by the Real Time PCR detector system. The relative expression of the Col1A1 gene was calculated as follows. ΔCt (Col1A1 in drug treatment group)=Avg. Ct (Col1A1 in drug treatment group)−Avg. Ct (GAPDH in drug treatment group) ΔCt (Col1A1 in TGF group)=Avg. Ct (Col1A1 in TGF group)−Avg. Ct (GAPDH in TGF group) ΔCt (Col1A1 in Control group)=Avg. Ct (Col1A1 in Control group)−Avg. Ct (GAPDH in Control group) ΔΔCt=Average value of ΔCt (Col1A1 in TGF group/drug treatment group)−ΔCt (Col1A1 in Control group)\nFormula for calculating the relative expression of Col1A1 gene: RQ=^2−ΔΔCt\nRelative quantification results were obtained by automatically analysis of ABI 7500 real-time quantitative PCR machine."}, "[4]": {"molecular_target": "ACC2 (Homo sapiens (Human), UniProt O00763)", "sequence (O00763 whole entry)": "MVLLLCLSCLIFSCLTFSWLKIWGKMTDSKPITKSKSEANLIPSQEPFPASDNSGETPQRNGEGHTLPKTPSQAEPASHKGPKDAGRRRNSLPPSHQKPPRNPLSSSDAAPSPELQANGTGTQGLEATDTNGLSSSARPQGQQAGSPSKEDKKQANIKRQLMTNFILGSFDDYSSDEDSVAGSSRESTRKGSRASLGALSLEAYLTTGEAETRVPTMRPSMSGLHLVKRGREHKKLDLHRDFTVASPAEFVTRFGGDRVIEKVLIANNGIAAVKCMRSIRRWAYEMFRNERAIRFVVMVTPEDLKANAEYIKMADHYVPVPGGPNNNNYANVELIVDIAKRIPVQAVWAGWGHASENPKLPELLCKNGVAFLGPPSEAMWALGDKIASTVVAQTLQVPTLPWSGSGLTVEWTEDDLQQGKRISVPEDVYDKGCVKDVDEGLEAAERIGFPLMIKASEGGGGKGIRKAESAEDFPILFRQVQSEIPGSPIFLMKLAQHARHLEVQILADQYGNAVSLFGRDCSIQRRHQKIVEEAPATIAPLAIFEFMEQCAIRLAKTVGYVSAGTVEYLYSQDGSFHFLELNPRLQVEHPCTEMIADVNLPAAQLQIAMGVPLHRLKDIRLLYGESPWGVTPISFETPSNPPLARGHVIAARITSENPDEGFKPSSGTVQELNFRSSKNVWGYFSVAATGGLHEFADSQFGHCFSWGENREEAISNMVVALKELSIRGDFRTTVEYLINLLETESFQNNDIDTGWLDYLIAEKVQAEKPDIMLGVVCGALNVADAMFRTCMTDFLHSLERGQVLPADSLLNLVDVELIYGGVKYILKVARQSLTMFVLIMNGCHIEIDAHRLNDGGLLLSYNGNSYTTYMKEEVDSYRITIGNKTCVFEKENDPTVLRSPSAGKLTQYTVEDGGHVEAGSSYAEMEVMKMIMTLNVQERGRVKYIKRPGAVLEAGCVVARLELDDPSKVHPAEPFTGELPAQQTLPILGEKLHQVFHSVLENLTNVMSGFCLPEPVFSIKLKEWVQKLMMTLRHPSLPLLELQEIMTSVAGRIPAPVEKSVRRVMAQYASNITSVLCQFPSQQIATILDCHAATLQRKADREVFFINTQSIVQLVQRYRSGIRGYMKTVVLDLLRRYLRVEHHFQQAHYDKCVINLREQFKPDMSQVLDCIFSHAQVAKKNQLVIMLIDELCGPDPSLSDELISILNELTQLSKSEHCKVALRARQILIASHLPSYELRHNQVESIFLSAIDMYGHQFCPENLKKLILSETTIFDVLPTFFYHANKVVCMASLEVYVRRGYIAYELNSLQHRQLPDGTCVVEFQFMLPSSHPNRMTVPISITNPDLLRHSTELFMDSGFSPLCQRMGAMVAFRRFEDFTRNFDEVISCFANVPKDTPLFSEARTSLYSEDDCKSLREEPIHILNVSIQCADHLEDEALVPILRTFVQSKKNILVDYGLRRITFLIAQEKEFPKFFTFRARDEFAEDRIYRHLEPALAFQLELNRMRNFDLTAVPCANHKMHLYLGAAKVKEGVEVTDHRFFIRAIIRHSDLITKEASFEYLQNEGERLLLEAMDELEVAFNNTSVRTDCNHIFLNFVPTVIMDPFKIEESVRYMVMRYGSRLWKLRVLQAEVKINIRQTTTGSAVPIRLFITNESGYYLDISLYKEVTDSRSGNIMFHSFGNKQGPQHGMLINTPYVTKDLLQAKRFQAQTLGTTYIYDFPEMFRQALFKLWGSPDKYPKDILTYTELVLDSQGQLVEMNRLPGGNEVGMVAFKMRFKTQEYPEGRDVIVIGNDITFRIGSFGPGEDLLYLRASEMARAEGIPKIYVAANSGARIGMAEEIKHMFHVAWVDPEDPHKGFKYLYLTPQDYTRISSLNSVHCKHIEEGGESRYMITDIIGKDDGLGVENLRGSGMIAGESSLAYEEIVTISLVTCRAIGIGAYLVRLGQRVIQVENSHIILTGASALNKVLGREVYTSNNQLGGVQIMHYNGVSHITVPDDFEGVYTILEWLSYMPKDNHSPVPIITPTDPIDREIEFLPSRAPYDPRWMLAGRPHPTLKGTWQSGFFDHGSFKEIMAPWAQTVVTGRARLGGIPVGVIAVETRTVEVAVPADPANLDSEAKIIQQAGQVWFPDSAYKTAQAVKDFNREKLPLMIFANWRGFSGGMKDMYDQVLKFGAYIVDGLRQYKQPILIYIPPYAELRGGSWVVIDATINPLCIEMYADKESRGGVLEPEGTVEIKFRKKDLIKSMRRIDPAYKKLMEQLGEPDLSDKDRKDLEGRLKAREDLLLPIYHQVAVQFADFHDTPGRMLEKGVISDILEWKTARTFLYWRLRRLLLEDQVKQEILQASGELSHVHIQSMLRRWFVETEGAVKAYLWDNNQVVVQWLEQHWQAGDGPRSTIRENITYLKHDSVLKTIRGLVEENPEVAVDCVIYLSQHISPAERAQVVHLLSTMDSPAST", "test": "ACC2 enzyme activity assay (ADP-Glo)", "format": "biochemical", "details": "ACC2 enzyme 1.1 nM working solution, room temperature", "description": "as §1, §2\nThe mixture was incubated at room temperature for 15 min.\nas §3"}}, "note": "Like-named read-outs stand apart in the source and are kept apart here."}
{"smiles": "COc1ccccc1[C@H](Cn1c(=O)n(C(C)(C)C(=O)O)c(=O)c2c(C)c(-c3ncco3)sc21)OC1CCOCC1", "note": "[ND-630, 2-[1-[2-(2-methoxyphenyl)-2-(oxecyclo-4-yloxy)ethyl]-5-methyl-6-(1,3-oxazol-2-yl)-2,4-dioxo-1H,2H,3H,4H-thieno[2,3-d]pyrimidin-3-yl]-2-methylpropanoic acid, reference compound]", "values": [{"measurement": "concentration at 0.25 h", "setting": "[1]; liver, read-out: Concentration in Liver", "result": 6070, "unit": "ng/g"}, {"measurement": "Kp at 0.25 h", "setting": "[1]; liver/plasma, read-out: Liver/plasma distribution ratio", "result": 41.8}, {"measurement": "concentration at 0.25 h", "setting": "[1]; plasma, read-out: Concentration in Plasma", "result": 145, "unit": "ng/mL"}, {"measurement": "IC50", "setting": "[2]", "result": 0.5, "unit": "nM"}, {"measurement": "Inhibition rate (%) of relative expression of the Col1A1 gene", "setting": "[3]", "result": 42.06, "unit": "%"}, {"measurement": "IC50", "setting": "[4]", "result": 3.56, "unit": "nM"}]}
